In ChEMBL document CHEMBL3525964 (Drug Metab Dispos, 2012):

How the values were obtained:
[1] = Drug level in urine of human treated with [14C}LY2452473 at 15 mg, po administered as single dose by LC-MS/MS method; format: ADME, organism-based; settings: in vivo
Plasma [2] = test: Drug level in human plasma treated with [14C}LY2452473 at 15 mg, po after 1 hr administered as single dose by HPLC analysis; format: ADME, organism-based; settings: in vivo
Cytochrome P450 2D6 [3] = target: T1, Cytochrome P450 2D6 (Homo sapiens, UniProt P10635); test: Normalized intrinsic clearance assessed as human recombinant CYP2D6-mediated drug depletion per pmol protein by LC-MS/MS method; format: ADME; settings: recombinant enzyme
Cytochrome P450 2C9 = Cytochrome P450 2C9 (Homo sapiens, UniProt P11712); test: Fraction metabolized assessed as human recombinant CYP2C9-mediated drug depletion by LC-MS/MS method relative to total normalized intrinsic clearance; format: ADME; settings: recombinant enzyme
Plasma [4] = test: Drug level in plasma of human treated with [14C}LY2452473 at 15 mg, po administered as single dose by LC-MS/MS method; format: ADME, organism-based; settings: in vivo
Plasma [5] = test: Drug level in human plasma treated with [14C}LY2452473 at 15 mg, po after 24 hrs administered as single dose by HPLC analysis; format: ADME, organism-based; settings: in vivo
Cytochrome P450 2D6 [6] = target: T1, Cytochrome P450 2D6; test: Fraction metabolized assessed as human recombinant CYP2D6-mediated drug depletion by LC-MS/MS method relative to total normalized intrinsic clearance; format: ADME; settings: recombinant enzyme
Cytochrome P450 3A4 [7] = target: T2, Cytochrome P450 3A4 (Homo sapiens, UniProt P08684); test: Intrinsic clearance assessed as human recombinant CYP3A4-mediated drug depletion per pmol protein by LC-MS/MS method; format: ADME; settings: recombinant enzyme
Plasma [8] = test: Drug level in human plasma treated with [14C}LY2452473 at 15 mg, po after 4 hrs administered as single dose by HPLC analysis; format: ADME, organism-based; settings: in vivo
Homo sapiens [9] = test: Cmax in human at 15 mg, po administered as single dose by liquid scintillation counting method; format: ADME, organism-based; set-up: dose 15 mg, route oral; settings: in vivo
Homo sapiens [10] = test: AUC (0 to infinity) in human at 15 mg, po administered as single dose by liquid scintillation counting method; format: ADME, organism-based, Plasma; set-up: dose 15 mg, time infinity, route oral; settings: in vivo
Homo sapiens [11] = test: Tmax in human at 15 mg, po administered as single dose by liquid scintillation counting method; format: ADME, organism-based; settings: in vivo
Plasma [12] = test: Drug level in human plasma treated with [14C}LY2452473 at 15 mg, po after 48 hrs administered as single dose by HPLC analysis; format: ADME, organism-based; settings: in vivo
Homo sapiens [13] = test: Terminal half life in human at 15 mg, po administered as single dose by liquid scintillation counting method; format: ADME, organism-based; settings: in vivo
Cytochrome P450 3A5 = Cytochrome P450 3A5 (Homo sapiens, UniProt P20815); test: Drug metabolism assessed as human recombinant CYP3A5-mediated drug depletion by LC-MS/MS method; format: ADME; settings: recombinant enzyme
[14] = Drug excretion in feces of human treated with [14C}LY2452473 at 15 mg, po administered as single dose by HPLC analysis; format: ADME, organism-based; settings: read-out: Drug excretion
[15] = Drug level in feces of human treated with [14C}LY2452473 at 15 mg, po administered as single dose by LC-MS/MS method; format: ADME, organism-based; settings: in vivo
Homo sapiens [16] = test: Tlast in human at 15 mg, po administered as single dose by liquid scintillation counting method; format: ADME, organism-based; settings: in vivo
Cytochrome P450 2C19 [17] = target: T3, Cytochrome P450 2C19 (Homo sapiens, UniProt P33261); test: Drug metabolism in human liver microsomes assessed as CYP3A4-mediated drug depletion in presence of CYP2C19 inhibitor modafinil by LC-MS/MS method; format: ADME
Homo sapiens [18] = test: Apparent volume of distribution during terminal phase in human at 15 mg, po administered as single dose by liquid scintillation counting method; format: ADME, organism-based; settings: in vivo
Cytochrome P450 2C19 [19] = target: T3, Cytochrome P450 2C19; test: Intrinsic clearance assessed as human recombinant CYP2C19-mediated drug depletion per pmol protein by LC-MS/MS method; format: ADME; settings: recombinant enzyme
Cytochrome P450 2D6 [20] = target: T1, Cytochrome P450 2D6; test: Intrinsic clearance assessed as human recombinant CYP2D6-mediated drug depletion per pmol protein by LC-MS/MS method; format: ADME; settings: recombinant enzyme
Plasma [21] = test: Drug level in human plasma treated with [14C}LY2452473 at 15 mg, po after 4 hrs administered as single dose by HPLC analysis relative to total radioactivity; format: ADME, organism-based; settings: in vivo
Cytochrome P450 3A4 [22] = target: T2, Cytochrome P450 3A4; test: Normalized intrinsic clearance assessed as human recombinant CYP3A4-mediated drug depletion per pmol protein by LC-MS/MS method; format: ADME; settings: recombinant enzyme
Homo sapiens [23] = test: Apparent total body clearance in human at 15 mg, po administered as single dose by liquid scintillation counting method; format: ADME, organism-based; settings: in vivo
Cytochrome P450 2E1 = Cytochrome P450 2E1 (Homo sapiens, UniProt P05181); test: Drug metabolism assessed as human recombinant CYP2E1-mediated drug depletion by LC-MS/MS method; format: ADME; settings: recombinant enzyme
Cytochrome P450 2C19 [24] = target: T3, Cytochrome P450 2C19; test: Normalized intrinsic clearance assessed as human recombinant CYP2C19-mediated drug depletion per pmol protein by LC-MS/MS method; format: ADME; settings: recombinant enzyme
Cytochrome P450 3A4 [25] = target: T2, Cytochrome P450 3A4; test: Drug metabolism in human liver microsomes assessed as CYP3A4-mediated drug depletion in presence of CYP3A4 inhibitor ketoconazole by LC-MS/MS method; format: ADME

T1 sequence (P10635 whole entry): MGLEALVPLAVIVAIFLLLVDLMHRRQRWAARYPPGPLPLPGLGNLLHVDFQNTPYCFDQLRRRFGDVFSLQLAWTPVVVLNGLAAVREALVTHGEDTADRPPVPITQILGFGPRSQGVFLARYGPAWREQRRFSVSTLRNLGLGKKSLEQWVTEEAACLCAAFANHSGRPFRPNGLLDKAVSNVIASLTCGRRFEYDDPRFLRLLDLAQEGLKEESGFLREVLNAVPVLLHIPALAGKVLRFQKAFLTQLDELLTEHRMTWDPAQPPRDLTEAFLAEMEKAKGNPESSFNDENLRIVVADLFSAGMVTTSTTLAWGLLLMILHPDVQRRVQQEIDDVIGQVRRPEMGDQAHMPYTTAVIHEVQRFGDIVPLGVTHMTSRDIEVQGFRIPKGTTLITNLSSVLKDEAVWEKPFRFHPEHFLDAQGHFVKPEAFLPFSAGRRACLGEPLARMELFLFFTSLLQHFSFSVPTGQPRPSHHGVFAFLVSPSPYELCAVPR
T2 sequence (P08684 whole entry): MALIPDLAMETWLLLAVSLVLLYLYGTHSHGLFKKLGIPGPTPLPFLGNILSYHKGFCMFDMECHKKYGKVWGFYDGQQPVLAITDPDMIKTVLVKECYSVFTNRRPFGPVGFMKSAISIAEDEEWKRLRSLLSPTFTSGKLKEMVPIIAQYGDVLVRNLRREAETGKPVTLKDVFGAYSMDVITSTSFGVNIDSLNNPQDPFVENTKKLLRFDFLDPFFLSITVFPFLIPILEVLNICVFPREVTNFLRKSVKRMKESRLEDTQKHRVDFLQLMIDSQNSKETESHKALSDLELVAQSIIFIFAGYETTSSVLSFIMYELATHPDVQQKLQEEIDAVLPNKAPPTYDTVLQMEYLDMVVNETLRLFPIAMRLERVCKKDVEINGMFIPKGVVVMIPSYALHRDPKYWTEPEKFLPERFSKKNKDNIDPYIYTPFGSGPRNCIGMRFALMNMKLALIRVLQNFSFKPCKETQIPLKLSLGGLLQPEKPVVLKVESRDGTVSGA
T3 sequence (P33261 whole entry): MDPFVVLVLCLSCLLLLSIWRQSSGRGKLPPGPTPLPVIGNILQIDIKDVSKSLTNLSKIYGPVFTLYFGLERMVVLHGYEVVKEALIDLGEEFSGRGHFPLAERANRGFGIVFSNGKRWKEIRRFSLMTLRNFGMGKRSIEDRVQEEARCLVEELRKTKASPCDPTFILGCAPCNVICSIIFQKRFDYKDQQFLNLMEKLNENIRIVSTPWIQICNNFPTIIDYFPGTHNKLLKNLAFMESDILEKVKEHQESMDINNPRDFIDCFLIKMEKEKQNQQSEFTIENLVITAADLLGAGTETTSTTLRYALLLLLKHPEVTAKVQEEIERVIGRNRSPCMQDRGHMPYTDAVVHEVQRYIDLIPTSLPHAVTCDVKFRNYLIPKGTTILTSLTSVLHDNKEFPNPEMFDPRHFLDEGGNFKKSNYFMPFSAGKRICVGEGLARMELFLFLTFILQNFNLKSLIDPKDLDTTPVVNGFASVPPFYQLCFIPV
Cytochrome P450 2C9, sequence (P11712 whole entry): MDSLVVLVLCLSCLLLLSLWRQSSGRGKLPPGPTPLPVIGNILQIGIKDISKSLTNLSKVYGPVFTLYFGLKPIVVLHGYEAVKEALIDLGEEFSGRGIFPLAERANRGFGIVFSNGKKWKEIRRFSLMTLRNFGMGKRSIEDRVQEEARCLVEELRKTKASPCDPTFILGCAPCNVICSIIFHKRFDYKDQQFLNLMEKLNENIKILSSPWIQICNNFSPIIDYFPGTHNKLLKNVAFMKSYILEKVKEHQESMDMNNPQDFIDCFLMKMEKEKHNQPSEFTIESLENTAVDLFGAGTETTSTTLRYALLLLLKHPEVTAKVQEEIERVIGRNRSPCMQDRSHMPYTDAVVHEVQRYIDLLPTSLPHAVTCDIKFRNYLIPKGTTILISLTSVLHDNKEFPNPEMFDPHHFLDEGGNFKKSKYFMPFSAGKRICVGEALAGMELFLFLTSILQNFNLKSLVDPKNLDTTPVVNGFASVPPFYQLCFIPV
Cytochrome P450 3A5, sequence (P20815 whole entry): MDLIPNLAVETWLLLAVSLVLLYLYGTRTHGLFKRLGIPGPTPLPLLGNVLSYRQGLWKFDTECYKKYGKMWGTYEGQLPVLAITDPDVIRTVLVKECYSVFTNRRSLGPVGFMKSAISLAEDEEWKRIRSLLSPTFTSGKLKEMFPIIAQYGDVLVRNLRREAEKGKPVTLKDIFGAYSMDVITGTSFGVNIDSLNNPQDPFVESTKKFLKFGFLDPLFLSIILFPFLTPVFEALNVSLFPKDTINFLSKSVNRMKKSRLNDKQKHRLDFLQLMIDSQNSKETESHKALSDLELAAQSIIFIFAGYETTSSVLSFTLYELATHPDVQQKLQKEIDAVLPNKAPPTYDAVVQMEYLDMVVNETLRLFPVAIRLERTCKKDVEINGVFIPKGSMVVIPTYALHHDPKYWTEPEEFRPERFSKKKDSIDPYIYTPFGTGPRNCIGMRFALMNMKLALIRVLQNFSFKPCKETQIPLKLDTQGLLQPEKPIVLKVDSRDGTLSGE
Cytochrome P450 2E1, sequence (P05181 whole entry): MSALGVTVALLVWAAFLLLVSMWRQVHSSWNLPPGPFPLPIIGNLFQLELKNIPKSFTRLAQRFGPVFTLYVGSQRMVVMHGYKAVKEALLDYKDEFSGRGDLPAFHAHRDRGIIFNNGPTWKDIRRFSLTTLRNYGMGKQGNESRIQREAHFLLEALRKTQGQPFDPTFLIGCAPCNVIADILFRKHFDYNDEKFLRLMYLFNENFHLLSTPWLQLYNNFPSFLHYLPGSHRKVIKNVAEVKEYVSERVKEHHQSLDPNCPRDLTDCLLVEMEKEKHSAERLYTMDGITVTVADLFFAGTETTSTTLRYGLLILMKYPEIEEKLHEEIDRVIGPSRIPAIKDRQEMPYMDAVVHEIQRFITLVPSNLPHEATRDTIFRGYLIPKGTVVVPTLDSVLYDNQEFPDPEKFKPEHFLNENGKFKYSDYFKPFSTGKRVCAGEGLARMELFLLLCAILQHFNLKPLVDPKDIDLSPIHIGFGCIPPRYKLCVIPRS

CC(C)OC(=O)N[C@H]1Cc2c(n(Cc3ccccn3)c3ccc(C#N)cc23)C1 [LY2452473]
Drug metabolism [1]: metabolite_detected | Drug uptake (Plasma [2]): 74.5% | CL (Cytochrome P450 2D6 [3]): 3 µL/min | Fm (Cytochrome P450 2C9): 8.5% | Drug metabolism (Plasma [4]): metabolite_detected | Drug uptake (Plasma [5]): 28.81% | Fm (Cytochrome P450 2D6 [6]): 2.6% | CL (Cytochrome P450 3A4 [7]): 0.75 µL/min | Drug uptake (Plasma [8]): 66.33% | Cmax (Homo sapiens [9]): 91.5 ng/mL | AUC (Homo sapiens [10]): 1330 ng·h/mL | Tmax (Homo sapiens [11]): 2 h | Drug uptake (Plasma [12]): 27.67% | beta t1/2 (Homo sapiens [13]): 27 h | Drug metabolism (Cytochrome P450 3A5): metabolite_not_detected | dose excreted [14]: 1.84% | Drug metabolism [15]: metabolite_detected | Tlast (Homo sapiens [16]): 168 h | Drug metabolism (Cytochrome P450 2C19 [17]): metabolite_not_detected | Vz/F (Homo sapiens [18]): 444 L | CL (Cytochrome P450 2C19 [19]): 0.3 µL/min | CL (Cytochrome P450 2D6 [20]): 0.3 µL/min | Drug uptake (Plasma [21]): 42.2% | CL (Cytochrome P450 3A4 [22]): 80 µL/min | CLt/F (Homo sapiens [23]): 11 L/h | Drug metabolism (Cytochrome P450 2E1): metabolite_not_detected | CL (Cytochrome P450 2C19 [24]): 5.7 µL/min | Drug metabolism (Cytochrome P450 3A4 [25]): metabolite_not_detected
